Data on 96 molecules can be found in ChEMBL document CHEMBL3507680, “University of Dundee, Gates Library screen for HepG2 cell viability”.

The data set can be described thus: Human HepG2 cell viability assay in 384 well format. Format: toxicity, cell-based. Set-up: dose 125 nL, time 70.5 hour; cytotoxicity at 70.5 h: concentration not given beside the values. The note with it: HepG2 cells, read-out: Inhibition.
For `O=C(Nc1ccccc1C(=O)NCCN1CCOCC1)c1ccco1`, the cytotoxicity at 70.5 h came out at 24.9%.
Take `CN(C)C(=O)N1CCN(Cc2ccc3occc3c2)[C@H]2CS(=O)(=O)C[C@H]21`: the cytotoxicity at 70.5 h was -3.65%.
Consider `O=C(c1ccc(S(=O)(=O)N2CCSCC2)cc1)N1CCC(O)C1` (stereo unspecified), for which the cytotoxicity at 70.5 h was -17.3%.
`Cc1nnc(CNC(=O)CC2CCc3ccccc32)o1` (stereo unspecified): the cytotoxicity at 70.5 h came to 25.8%.
As to `Cc1nc2c(c(NC3CCN(Cc4ccccc4)CC3)n1)CCNCC2`, the cytotoxicity at 70.5 h is 0.337%.
As to `Cc1ncccc1OC1(C(=O)NCc2noc(C(C)C)n2)CCNCC1`, the cytotoxicity at 70.5 h was -5.62%.
For `CCCNC(=O)N1CCC(c2nnc(Cn3cccn3)n2C2CC2)CC1` the value was -10.5%; for `CCOC(=O)CC(C)NC(=O)c1cn(Cc2ccccc2F)nn1` (stereo unspecified), -1.02%.
Turning to `Cn1cc(C(=O)N2CC[C@@]3(O)CCN(C4CCCCC4)C[C@H]3C2)cn1`, the cytotoxicity at 70.5 h was -2.94%.
For `CC(C)c1noc(C(C)Nc2nccc(CCC(F)(F)F)n2)n1` (stereo unspecified) the value was -10.8%; for `Cc1n[nH]c(C)c1CN1CCC(c2cc(C(C)C)n[nH]2)CC1`, 1.2%.
With `Cc1nn(C)c2nc(N(C)CC3CCN(CC(C)C)C3)sc12` (stereo unspecified), the cytotoxicity at 70.5 h was 1.29%.
For `Cn1cc(-c2cc(C(=O)N3CCOCC3)c3ccc(F)cc3n2)cn1` the value was 24.6%.
For `CN(C)CCN(C)c1nc(CCc2ccccc2)nc2c1cnn2C` the value was -1.09%; for `COc1cc(Cl)cc(C(=O)N2CCC3(CC2)CNC(=O)C3)c1`, -15.2%; for `COc1ccc(C)cc1C(C(=O)O)N1CCN(Cc2ccccn2)CC1` (stereo unspecified), 3.54%.
Consider `Cc1nc(S(=O)(=O)N2CCc3[nH]nc(CCC(C)C)c3C2)cn1C`, for which the cytotoxicity at 70.5 h is -6.22%.
As to `CCc1ccccc1OC1CN(C(=O)CN(C)Cc2ccncc2)C1`, the cytotoxicity at 70.5 h is -8.04%.
For `O=C1CC2(CCN(Cc3ccoc3)CC2)CN1Cc1cc(F)cc(F)c1` the value was -6.12%.
Then `COCC[C@]1(O)CCN(C(=O)c2cnn(C)c2)C[C@H]1C`, with -0.906%.
For the molecule `C[C@H](c1ccc(F)cc1)n1c(C2CCC2)n[nH]c1=O`, the cytotoxicity at 70.5 h was -12.6%.
Regarding `Cc1cc(CN2CCCC2)cc(Oc2ccc3c(c2)CC(CN)O3)c1` (stereo unspecified), the cytotoxicity at 70.5 h is -11.7%.
Then `Cc1cnccc1-n1nc(C(C)C)nc1CS(C)(=O)=O`, with -9.46%; and `COc1nccc(N2CC[C@@H](N3CCCCCC3)[C@H](O)C2)c1C#N`, with -11.1%.
Regarding `CC(C)CCn1cc(C(C(=O)O)N2CCC(N3CCSCC3)CC2)cn1` (stereo unspecified), the cytotoxicity at 70.5 h worked out at 3.77%.
Then `CCc1cc(N(C)Cc2c(C)nn(C)c2C)n2nccc2n1`, with -2.89%; and `Cc1cc(C)c(C(=O)N2CCn3nc(C(=O)NCCN(C)C)cc3C2)[nH]1`, with -3.17%; and `CCCc1nnc(N2CC[C@@](O)(C3CCOCC3)[C@H](C)C2)s1`, with 3.18%.
For `CC(c1ccon1)N(C)C(=O)C1CCN(CC(N)=O)CC1` (stereo unspecified) the value was 18%; for `Cc1nc(CN)cc(NCc2ccccc2-n2cncn2)n1`, 25%.
In the case of `O=C1O[C@@H]2CN(c3ncccn3)C[C@@H]2N1CCCc1ccc(F)cc1`, the cytotoxicity at 70.5 h was -7.46%.
For the molecule `Cc1ccc(C)c(OCCN(C)C(=O)C2CCCN2C(N)=O)c1C` (stereo unspecified), the cytotoxicity at 70.5 h was -2.41%.
For `CC(=O)N1CCc2c(nc(N(C)C)nc2NCCc2cccs2)C1` the value was -5.76%; for `CC(C)NC(=O)CN1CCN(CC2CCOc3ccccc3C2)CC1` (stereo unspecified), -7.34%.
For `CN1CC(c2ccccc2)CC12CCN(C(=O)c1ccc(Cl)cn1)CC2` (stereo unspecified) the value was 19.6%; for `COc1ccc2cc(-c3n[nH]cc3CN3CCSCC3)ccc2c1`, 0.45%; for `Cc1cc(C(=O)N(C)CCCn2cccn2)nc(N)n1`, -5.11%.
With `COc1ccccc1N1CCN(C(=O)Cn2nccc2C)CC1(C)C`, the cytotoxicity at 70.5 h was -3.69%.
`Cn1cc(CN2CC[C@@H]3[C@@H](CCC(=O)N3CC3CCNCC3)C2)cn1`: the cytotoxicity at 70.5 h was 1.94%.
As to `COC(=O)c1ccc(N2CCN(C(=O)c3ccc(=O)n(C)c3)CC2)cc1`, the cytotoxicity at 70.5 h is -5.8%.
Then `O=C(O)CC1COCCN1CCCc1ccccc1` (stereo unspecified), with -11.2%; and `CSc1ccccc1C(=O)NCc1cc2n(n1)CCCN(CC(C)C)C2`, with 22.5%.
As to `Cc1nc2sccn2c1C(=O)N1CCc2[nH]cnc2C1`, the cytotoxicity at 70.5 h is 10.2%.
With `CCn1ncnc1C(C)NC(=O)C1CCN(Cc2ccco2)CC1` (stereo unspecified), the cytotoxicity at 70.5 h was -0.537%.
For `O=C1CCCN1CCC1CCN(C2CCC3(CCNCC3)CC2)CC1` the value was -6.34%; for `CCC[C@H]1CN(c2nc(CO)cs2)C[C@@H]1NC(=O)C1(COC)CC1`, 4.28%; for `CC(C)c1noc(CN(C)C(=O)c2ccccc2-c2nc[nH]n2)n1`, 6.97%.
For `CN(Cc1noc2c1CCCC2)C(=O)Cn1cnc2ccccc2c1=O` the value was -9.78%; for `Cc1cc(C)c(C(=O)N2CCC3(CCCNC3)C2)cc1C` (stereo unspecified), 25.6%.
Then `c1cncc(-n2cnnc2CCCN2CCOCC2)c1`, with 1.35%; and `CCOCCc1nc(Cc2ccccc2)n[nH]1`, with -14.4%; and `CC(C)=CCC1(CO)CCCN(S(=O)(=O)N2CCCC2)C1` (stereo unspecified), with -14.7%.
On to `CC(C)N1CC(NC(=O)c2ccc(Cl)s2)CC1=O` (stereo unspecified), for which the cytotoxicity at 70.5 h was -6.6%.
For `CCN1CCCC(c2c(-c3ccccc3)ncn2CCc2c[nH]cn2)C1` (stereo unspecified) the value was -11.9%.
For `O=S1(=O)CCC(n2nc(COc3ccccc3)nc2-c2cnccn2)C1` (stereo unspecified) the value was -1.94%.
Turning to `CCCOc1ccccc1NCC(=O)Nc1ccc(CC)cc1`, the cytotoxicity at 70.5 h was -6.36%.
With `COc1ccc(C(=O)N2C[C@@H](C(=O)O)[C@H](c3cccc(F)c3)C2)c(O)c1`, the cytotoxicity at 70.5 h is 5.73%.
For the molecule `Cc1ccc(CN2CC3(CCNCC3)CCC2=O)c(F)c1F`, the cytotoxicity at 70.5 h is -0.751%.
Then `CN(C)CC1(O)CCN(C(=O)c2cnc(-c3ccccn3)nc2)C1` (stereo unspecified), with 15.3%; and `O=C(CCCn1cncn1)N1CCC2(CCCNC2=O)C1` (stereo unspecified), with 0.299%; and `CCCn1ccnc1CN1C[C@@H](NC(C)=O)[C@H](c2ccc(C)cc2)C1`, with -0.633%.
In the case of `Cc1cccnc1CN(C)c1ncnc2[nH]ccc12`, the cytotoxicity at 70.5 h is -6.05%.
For `Cc1cc(S(=O)(=O)NCC2CNCCOC2)c(C)cc1Cl` (stereo unspecified) the value was 1.99%.
For `O=C(CN1CC(c2ccccc2)CC1=O)N1CCN(c2nccs2)CC1` (stereo unspecified) the value was -6.92%; for `c1ccc2sc(N3CCCN(c4ncnc5c4CCNC5)CC3)nc2c1`, -7.26%.
`CCc1cc(N2CCC(NC3CCOCC3)CC2)nc(N(C)C)n1`: the cytotoxicity at 70.5 h is 25.7%.
For `Cc1ccnc(N2CCC(=O)N(Cc3ccc(F)cc3)C(C(C)C)C2)n1` (stereo unspecified) the value was -9.2%; for `COc1cccc(OCC2CCCN(c3cc(C(N)=O)ccn3)C2)c1` (stereo unspecified), -11.8%; for `CC(C)c1nc(CN(C)C(=O)c2cn3ccsc3n2)cs1`, 2.2%.
For `O=C1N(Cc2ccc(F)c(F)c2)CCCC1(O)CNCc1ccccn1` (stereo unspecified) the value was -4.31%.
Take `N#Cc1ccccc1C(=O)N1C[C@H]2CC[C@@H]1CN(Cc1ccccc1)C2`: the cytotoxicity at 70.5 h is -13.1%.
For `CC(C)=CCN1CCN(C(=O)COc2ccccc2)[C@H]2CS(=O)(=O)C[C@H]21` the value was 1.61%.
With `Cn1ncc2c(NCC(=O)N3CCNCC3)nc(C(C)(C)C)nc21`, the cytotoxicity at 70.5 h is -1.24%.
For the molecule `Cc1ccc(CN2CCC(n3cc(C(O)c4ccccc4)nn3)CC2)o1` (stereo unspecified), the cytotoxicity at 70.5 h was -5.94%.
For the molecule `Cc1[nH]ccc1C(=O)N1CCC2(CC1)c1nc[nH]c1CCN2CC(C)C`, the cytotoxicity at 70.5 h was -8.19%.
Then `O=C(CCn1cc(Cl)cn1)N1CCN(CC2CC2)[C@@H]2CS(=O)(=O)C[C@@H]21`, with -10.2%; and `COCCN1CC2(CCCN(C(=O)NCCc3cccs3)C2)CCC1=O` (stereo unspecified), with 4.85%; and `Cc1cc(C(=O)N2CCCC(c3nccn3Cc3cscn3)C2)on1` (stereo unspecified), with -6.42%.
Then `O=C(c1ccccn1)N1C[C@@H]2CC[C@H](C1)N(C(=O)CCC(F)(F)F)C2`, with -3.18%; and `Cc1cccc(CN2CCC(c3nccn3CC(N)=O)CC2)n1`, with 22.7%.
Regarding `Cc1nsc(NC(=O)NC2CCN(C)CC2)n1`, the cytotoxicity at 70.5 h is -11.7%.
Then `COc1cnc(N2C[C@@H](CN3CCOCC3)[C@@H](CO)C2)nc1`, with -5.35%.
As for `O=C1CCCCCN1Cc1ncnn1Cc1c(F)cccc1Cl`, the cytotoxicity at 70.5 h was -5.62%.
Then `CCN1CC(C(=O)N2CC(Oc3ccccc3F)C2)CC1=O` (stereo unspecified), with -1.35%; and `COc1ccc(F)cc1C(=O)N1CCC2(CCC(=O)N(C(C)C)C2)CC1`, with -5.66%.
For `CCc1nc(N)nc(NCc2cnn3cccnc23)c1C`, the cytotoxicity at 70.5 h was -0.745%.
Then `CC(=O)N1CCN(C[C@H]2CC[C@@H](Cc3ccc4c(c3)OCO4)O2)CC1`, with -1.65%; and `Cc1cccnc1CC(C)N(C)C(=O)c1ccoc1C` (stereo unspecified), with 5.46%; and `Cc1noc(C)c1CN1C(=O)[C@H]2CC[C@@H]1CN(C(=O)c1cscn1)C2`, with -2.09%.
Take `CSc1nccc(N2CCC3(CCCN(Cc4cccc(C)c4)C3)C2)n1` (stereo unspecified): the cytotoxicity at 70.5 h is -0.65%.
Regarding `Cc1cc(=O)[nH]c(-c2cccc(CN3CCCN4CCCC4C3)c2)n1` (stereo unspecified), the cytotoxicity at 70.5 h is -5.83%.
For `CCC(C(=O)NCc1csc(-c2ncccn2)n1)n1cccn1` (stereo unspecified) the value was 13%; for `COc1ncc(C(=O)N2CCC3(CC2)C(=O)Nc2ccccc23)cn1`, 0.417%; for `CCS(=O)(=O)CCNC(=O)[C@@]12CNC[C@@H]1CN(C1CCCC1)C2`, -0.64%.
With `O=c1[nH]nc(CCCN2CCOCC2)n1-c1ccc(F)cc1F`, the cytotoxicity at 70.5 h amounted to 24.5%.
Then `CC[C@@]1(O)CCN(CCCOc2ccc(C(N)=O)cc2)C[C@H]1O`, with -4.97%.
